Results on 21 compounds are retold here after patent publication US20240293392A1, “INHIBITOR COMPOUNDS” (NeoPhore Limited, priority 2021, published 2024).

The target of test [1] is T1, recombinant N-terminal MLH1 (residues 15-340) (Homo sapiens, UniProt P40692).
T1 construct: recombinant N-terminal MLH1 (residues 15-340)
T1 sequence (P40692 15-340): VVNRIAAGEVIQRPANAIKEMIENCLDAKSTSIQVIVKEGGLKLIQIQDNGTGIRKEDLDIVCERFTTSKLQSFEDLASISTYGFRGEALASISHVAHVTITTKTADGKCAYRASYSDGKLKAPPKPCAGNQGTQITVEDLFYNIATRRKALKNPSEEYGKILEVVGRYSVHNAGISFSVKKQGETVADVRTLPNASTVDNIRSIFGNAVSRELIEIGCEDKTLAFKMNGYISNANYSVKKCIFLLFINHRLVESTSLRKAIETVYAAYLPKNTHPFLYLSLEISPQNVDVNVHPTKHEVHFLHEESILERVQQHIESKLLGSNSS
Nature of the test: Fluorescence Polarisation Assay for MLH1. The note with it: fluorescence polarisation probe displacement; 100 nM N-terminal MLH1, 5 nM probe compound. In kind it is binding. The method in brief:
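FP displacement assay: 100 nM MLH1 (residues 15-340) preincubated 30 min at room temperature with compound in 25 mM HEPES pH 7.5, 250 mM NaCl, 10 mM MgCl2, 0.01% Triton X-100, 5 mM DTT, then 5 nM rhodamine-labelled probe added and read immediately. Data normalised to no-inhibitor and no-enzyme controls.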

For test [2], the target named is T2, recombinant N-terminal PMS2 (residues 1-365) (Homo sapiens, UniProt P54278).
T2 construct: recombinant N-terminal PMS2 (residues 1-365)
T2 sequence (P54278 1-365): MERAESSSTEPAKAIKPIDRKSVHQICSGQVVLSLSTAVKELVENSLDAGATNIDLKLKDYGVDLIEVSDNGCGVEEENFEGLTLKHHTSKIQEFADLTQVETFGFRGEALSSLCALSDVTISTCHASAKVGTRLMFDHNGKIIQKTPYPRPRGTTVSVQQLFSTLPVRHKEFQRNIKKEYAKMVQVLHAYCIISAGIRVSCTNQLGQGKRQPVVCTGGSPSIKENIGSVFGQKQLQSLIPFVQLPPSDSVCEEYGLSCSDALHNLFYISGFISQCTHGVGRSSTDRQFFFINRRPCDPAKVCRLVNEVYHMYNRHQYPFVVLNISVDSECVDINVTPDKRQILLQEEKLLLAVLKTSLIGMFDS
Nature of the test: Fluorescence Polarisation Assay for PMS2. In kind it is binding. The conditions noted are these: fluorescence polarisation probe displacement; 10 nM N-terminal PMS2, 5 nM probe compound; read-out: PMS2 IC50. Put shortly:
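Competition fluorescence polarisation with 10 nM N-terminal PMS2 and 5 nM fluorescent probe (final), read after 1 h at room temperature following 30 min compound pre-incubation. Data normalised to no-inhibitor and no-enzyme controls; single-point screening or serial dilutions for potency.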
For orientation: In fluorescence polarisation assays a small probe gives low polarisation when free and higher when bound to something large.

In general, IC50 refers to the midpoint of a concentration-inhibition curve.

In the case of `O=C(c1c(O)cc(O)cc1OCC1CC1)N1Cc2cccc(NC3CCOC3)c2C1` (stereo not drawn) [Example 25, (2-(Cyclopropylmethoxy)-4,6-dihydroxyphenyl)(4-((tetrahydrofuran-3-yl)amino)isoindolin-2-yl)methanone], the concentration for half-maximal inhibition (IC50) in test [1] was less than 1 µM; in test [2] it was 1 to 10 µM.

As for `O=C(c1c(O)cc(O)cc1OCc1ccccc1)N1Cc2cccc(OCC3CNC3)c2C1` [Example 90, (4-(Azetidin-3-ylmethoxy)isoindolin-2-yl)(2-(benzyloxy)-4,6-dihydroxyphenyl) methanone], the IC50 in test [1] and in test [2] was 1 to 10 µM in each case.

As for `CC(=O)Nc1cccc2c1CN(C(=O)c1c(O)cc(O)cc1OCc1ccccc1)C2` [Example 94, N-(2-(2-(benzyloxy)-4,6-dihydroxybenzoyl)isoindolin-4-yl)acetamide], the IC50 in test [1] and in test [2] was 1 to 10 µM in each case.

As for `COCCOc1cc2c(c(N[C@@H]3CCOC3)c1)CN(C(=O)c1c(O)cc(O)cc1OCc1ccccc1)CC2` [Example 60, (R)-(2-(Benzyloxy)-4,6-dihydroxyphenyl)(6-(2-methoxyethoxy)-8-((tetrahydrofuran-3-yl)amino)-3,4-dihydroisoquinolin-2(1H)-yl)methanone], the IC50 in test [1] is less than 1 µM; in test [2] it was greater than 10 µM.

On to `O=C(c1c(O)cc(O)cc1OCc1ccccc1)N1CCc2cccc(Nc3cncnc3)c2C1` [Example 71, (2-(Benzyloxy)-4,6-dihydroxyphenyl)(8-(pyrimidin-5-ylamino)-3,4-dihydroisoquinolin-2(1H)-yl)methanone], for which the results for the half-maximal inhibitory concentration (IC50) in test [1] and in test [2] were less than 1 µM and 1 to 10 µM, respectively.

As to `CC1(NCc2cccc3c2CN(C(=O)c2c(O)cc(O)cc2OCc2ccccc2)C3)COC1` [Example 82, (2-(Benzyloxy)-4,6-dihydroxyphenyl)(4-(((3-methyloxetan-3-yl)amino)methyl)isoindolin-2-yl)methanone], the IC50 in test [1] is less than 1 µM; in test [2], 1 to 10 µM.

Take `COCOc1cc(OCOC)c(C(=O)N2CCc3cccc(N(C)C4CN(C(C)=O)C4)c3C2)c(OCc2ccccc2)c1` [Example 149, 1-(3-((2-(2-(Benzyloxy)-4,6-bis(methoxymethoxy)benzoyl)-1,2,3,4-tetrahydroisoquinolin-8-yl)(methyl)amino)azetidin-1-yl)ethan-1-one]: the figures for the IC50 in test [1] and in test [2] were 1 to 10 µM and greater than 10 µM, respectively.

With `CC(=O)N1CCC(Nc2cccc3c2CN(C(=O)c2c(O)cc(O)cc2OCc2ccccc2)C3)C1` (stereo not drawn) [Example 36, 1-(3-((2-(2-(Benzyloxy)-4,6-dihydroxybenzoyl)isoindolin-4-yl)amino)pyrrolidin-1-yl)ethan-1-one], the IC50 was less than 1 µM in test [1] and 1 to 10 µM in test [2].

For the compound `CN(C)CCOc1cc2c(c(N[C@@H]3CCOC3)c1)CN(C(=O)c1c(O)cc(O)cc1OCc1ccccc1)CC2` [Example 131, (R)-(2-(Benzyloxy)-4,6-dihydroxyphenyl)(6-(2-(dimethylamino)ethoxy)-8-((tetrahydrofuran-3-yl)amino)-3,4-dihydroisoquinolin-2(1H)-yl)methanone], the IC50 in test [1] is less than 1 µM; in test [2], 1 to 10 µM.

As to `Nc1cccc2c1CN(C(=O)c1c(O)cc(O)cc1OCc1ccccc1)CC2` [Example 100, 8-Amino-3,4-dihydroisoquinolin-2(1H)-yl(2-(benzyloxy)-4,6-dihydroxyphenyl)methanone], the IC50 in test [1] and in test [2] was 1 to 10 µM throughout.

As to `CN(C)C(=O)c1ccc2c(c1)CN(C(=O)c1c(O)cc(O)cc1OCc1ccccc1)C2` [Example 87, 2-(2-(Benzyloxy)-4,6-dihydroxybenzoyl)-N,N-dimethylisoindoline-5-carboxamide], the concentration for half-maximal inhibition (IC50) in test [1] and in test [2] was less than 1 µM throughout.

Take `O=C(c1c(O)cc(O)cc1OCC1CCCCC1)N1CCc2cccc(NC3CCOC3)c2C1` (stereo not drawn) [Example 28, (2-(Cyclohexylmethoxy)-4,6-dihydroxyphenyl)(8-((tetrahydrofuran-3-yl)amino)-3,4-dihydroisoquinolin-2(1H)-yl)methanone]: the IC50 in test [1] and in test [2] was 1 to 10 µM throughout.

Consider `CN(C)C(=O)N1CCC(Nc2cccc3c2CN(C(=O)c2c(O)cc(O)cc2OCc2ccccc2)CC3)C1` (stereo not drawn) [Example 113, 3-((2-(2-(Benzyloxy)-4,6-dihydroxybenzoyl)-1,2,3,4-tetrahydroisoquinolin-8-yl)amino)-N,N-dimethylpyrrolidine-1-carboxamide], for which the IC50 in test [1] was less than 1 µM; in test [2], greater than 10 µM.

For `CNCc1cccc2c1CN(C(=O)c1c(O)cc(O)cc1OCc1ccccc1)C2` [Example 79, (2-(Benzyloxy)-4,6-dihydroxyphenyl) (4-((methylamino)methyl)isoindolin-2-yl) methanone], the IC50 in test [1] and in test [2] was 1 to 10 µM throughout.

Take `COc1ccc(COc2cc(O)cc(O)c2C(=O)N2Cc3cccc(NC4CCOC4)c3C2)cc1` (stereo not drawn) [Example 39, (2,4-Dihydroxy-6-((4-methoxybenzyl)oxy)phenyl)(4-((tetrahydrofuran-3-yl)amino)isoindolin-2-yl)methanone]: the IC50 in test [1] is less than 1 µM; in test [2], 1 to 10 µM.

As to `COc1cc2c(c(NC3CCOC3)c1)CN(C(=O)c1c(O)cc(O)cc1OCc1ccccc1)CC2` (single isomer, unassigned) [Example 73, (2-(Benzyloxy)-4,6-dihydroxyphenyl)(6-methoxy-8-((tetrahydrofuran-3-yl)amino)-3,4-dihydroisoquinolin-2(1H)-yl)methanone], the values for the IC50 in test [1] and in test [2] were 1 to 10 µM and greater than 10 µM, respectively.

As for `O=C(c1c(O)cc(O)cc1OCc1ccccc1)N1Cc2ccccc2C(O)C1` (single isomer, unassigned) [Example 50, (2-Benzyloxy-4,6-dihydroxy-phenyl)-(4-hydroxy-3,4-dihydro-1H-isoquinolin-2-yl)methanone], the IC50 in test [1] is 1 to 10 µM; in test [2], greater than 10 µM.

Consider `CN1CCN(Cc2cc3c(c(N[C@@H]4CCOC4)c2)CN(C(=O)c2c(O)cc(O)cc2OCc2ccccc2)CC3)CC1` [Example 122, (R)-(2-(Benzyloxy)-4,6-dihydroxyphenyl)(6-((4-methylpiperazin-1-yl)methyl)-8-((tetrahydrofuran-3-yl)amino)-3,4-dihydroisoquinolin-2(1H)-yl)methanone], for which the IC50 in test [1] was less than 1 µM; in test [2] it was 1 to 10 µM.

Turning to `COc1cc2c(c(NC3CCOC3)c1)CN(C(=O)c1c(O)cc(O)cc1OCc1ccccc1)CC2` (stereo not drawn) [Example 54, (2-(Benzyloxy)-4,6-dihydroxyphenyl)(6-methoxy-8-((tetrahydrofuran-3-yl)amino)-3,4-dihydroisoquinolin-2(1H)-yl)methanone], the IC50 in test [1] was less than 1 µM; in test [2], 1 to 10 µM.

For the compound `CN1CCN(Cc2cc3c(c(N[C@H]4CCOC4)c2)CN(C(=O)c2c(O)cc(O)cc2OCc2ccccc2)CC3)CC1` [Example 121, (S)-(2-(Benzyloxy)-4,6-dihydroxyphenyl)(6-((4-methylpiperazin-1-yl)methyl)-8-((tetrahydrofuran-3-yl)amino)-3,4-dihydroisoquinolin-2(1H)-yl)methanone], the IC50 in test [1] and in test [2] was less than 1 µM in each case.

As for `CC(=O)NCc1cccc2c1CN(C(=O)c1c(O)cc(O)cc1OCc1ccccc1)C2` [Example 95, N-((2-(2-(Benzyloxy)-4,6-dihydroxybenzoyl)isoindolin-4-yl)methyl)acetamide], the IC50 in test [1] and in test [2] was 1 to 10 µM in each case.
